# Reference: patent US8415312B2, “Compound which is a nystatin derivative” (Biosergen AS, priority 2007, dated 2013)
# Assays:
# [1] = test system: mice (C57B1/6xDBA/2)F1 B6D2F1; conditions: single injection into tail vein, probit analysis
# Procedure: Male mice of hybrids of first generation (C57B1/6xDBA/2)F1 B6D2F1, weight 20-22 g., received from the Central farm. “Kryukovo” of Russian Academies of Medical Science (RAMS) were used. Animals were maintained in a vivarium in plastic cages (with hardwood bedding in environmentally controlled conditions: 24±1° C., 12/12 hours light/dark cycle) on a standard diet of bricketed forages with easy access to drinking water (ad libitum). After a 2-week quarantine period, healthy animals were used in experimental work.
# The solutions were prepared as follows: dry antibiotic substances (5 mg) were mixed with dry sodium deoxycholate (4.1 mg) in a sterile glass vial. 10 mL of phosphate buffer (NaH2PO4—1.59 g; Na2HPO4—0.96 g; H2O—to 100 mL) was added to the mix and the suspension was immediately subjected to vigorous shaking for 10 minutes until homogeneous suspensions were formed.
# Preparations of amphotericin B and S44HP were also prepared in the same way.
# The antibiotic preparations were singly injected into the mice's tail vein within 1-1.5 hours after the preparation of solutions. […] Each antibiotic was used in a range of doses resulting in 0% to 100% lethality and a minimum of 3 intermediate doses. Animals were randomized into groups, each containing 6 mice.
# [2] = test system: Candida albicans ATCC 14053; experiment: Antifungal susceptibility study (1), broth microdilution MIC; type: cell-based; conditions: lowest concentration preventing any visible growth, read at 48 hours, 35° C., RPMI 1640 pH 7.0
# Procedure: (§1) ACROS ORGANICS, New Jersey, USA), pH 7.0, was used in study. […] Then these DMSO solutions were diluted 50-fold (first 10-fold and then 5-fold) in the test medium. […] The solutions were prepared just before using. The organisms used for susceptibility testing were: Candida albicans ATCC 14053, Cryptococcus humicolus ATCC 9949, Aspergillus niger ATCC 16404 and Fusarium oxysporum VKM F-140 (=CMI, IMI 90473). Organisms were stored on potato dextrose agar […] 50% glycerol solution at -70° C. For short-term storage, stock cultures were stored on agar […] 4° C. The cultures of yeasts were sub-cultured onto Sabouraud dextrose (SAB) agar and incubated for 24 hours at 35° C. (Candida albicans) or for 48 hours at 25° C. (Cryptococcus humicolus) to obtain a freshly grown pure culture. The cultures of moulds were sub-cultured onto potato dextrose agar and incubated for 7 days at 35° C. […] (Fusarium oxysporum) to ensure maximum sporulation. […] Inoculum quantitation was performed by plating dilution of the inoculum on Sabouraud dextrose agar to determine the viable number of CFU per milliliter. Sterile 96-well flat-bottomed microtitration plates were used for testing. 100 μl of diluted inocula were dispensed into each microdilution well containing 100 μl of the double dilutions of compounds. Drug-free and yeast/mould-free controls were included. Microdilution trays were incubated at 35° C. (Candida albicans and moulds) or 25° C. (Cryptococcus humicolus) without agitation and observed for the presence or absence of visible growth. […] Minimal inhibitory concentrations (MICs) were read at 48 hours.
# [3] = test system: Cryptococcus humicolus ATCC 9949; experiment: as above; type: cell-based; conditions: lowest concentration preventing any visible growth, read at 48 hours, 25° C., RPMI 1640 pH 7.0
# Procedure: as §1
# [4] = test system: Aspergillus niger ATCC 16404; experiment: as above; type: cell-based; conditions: lowest concentration preventing any visible growth, read at 48 hours, 35° C., RPMI 1640 pH 7.0
# Procedure: (§2) ACROS ORGANICS, New Jersey, USA), pH 7.0, was used in study. […] Then these DMSO solutions were diluted 50-fold (first 10-fold and then 5-fold) in the test medium. […] The solutions were prepared just before using. The organisms used for susceptibility testing were: Candida albicans ATCC 14053, Cryptococcus humicolus ATCC 9949, Aspergillus niger ATCC 16404 and Fusarium oxysporum VKM F-140 (=CMI, IMI 90473). Organisms were stored on potato dextrose agar […] 50% glycerol solution at -70° C. For short-term storage, stock cultures were stored on agar […] 4° C. The cultures of yeasts were sub-cultured onto Sabouraud dextrose (SAB) agar and incubated for 24 hours at 35° C. (Candida albicans) or for 48 hours at 25° C. (Cryptococcus humicolus) to obtain a freshly grown pure culture. The cultures of moulds were sub-cultured onto potato dextrose agar and incubated for 7 days at 35° C. […] (Fusarium oxysporum) to ensure maximum sporulation. […] Finally, the suspensions were vortexed for 15 s to break up clumps of cells and then filtered through four layers of sterile gauze. The densities of conidial spore suspensions was measured at 530 nm and adjusted to 0.09-0.11 for Aspergillus niger and 0.15-0.17 for Fusarium oxysporum. These suspensions were diluted 1:50 with the standard medium. […] Inoculum quantitation was performed by plating dilution of the inoculum on Sabouraud dextrose agar to determine the viable number of CFU per milliliter. Sterile 96-well flat-bottomed microtitration plates were used for testing. 100 μl of diluted inocula were dispensed into each microdilution well containing 100 μl of the double dilutions of compounds. Drug-free and yeast/mould-free controls were included. Microdilution trays were incubated at 35° C. (Candida albicans and moulds) or 25° C. (Cryptococcus humicolus) without agitation and observed for the presence or absence of visible growth. […] Minimal inhibitory concentrations (MICs) were read at 48 hours.
# [5] = test system: Fusarium oxysporum VKM F-140; experiment: as above; type: cell-based; conditions: lowest concentration preventing any visible growth, read at 48 hours, 35° C., RPMI 1640 pH 7.0
# Procedure: as §2
Structure (SMILES),LD50 [1],MTD [1],MIC Candida albicans ATCC 14053 [2],MIC Cryptococcus humicolus ATCC 9949 [3],MIC Aspergillus niger ATCC 16404 [4],MIC Fusarium oxysporum VKM F-140 [5]
CC1C=CC=CC=CC=CC=CC=CC=CC(OC2OC(C)C(O)C(N)C2O)CC2OC(O)(CC(O)C(O)CCC(O)CC(O)CC(O)CC(=O)OC(C)C(C)C1O)CC(O)C2C(=O)NCCN(C)C.NC(CCC(=O)O)C(=O)O (stereo not drawn) [Compound 28],22.1 mg/kg,14.7 mg/kg,–,–,–,–
CC1O[C@@H](O[C@H]2/C=C/C=C/C=C/C=C/C=C/C=C/C=C/[C@H](C)[C@@H](O)[C@@H](C)[C@H](C)OC(=O)C[C@H](O)C[C@H](O)C[C@H](O)CC[C@@H](O)[C@H](O)C[C@]3(O)C[C@H](O)[C@@H](C)[C@H](C2)O3)[C@H](O)C(N)[C@@H]1O.N[C@H](CCC(=O)O)C(=O)O (stereo partly drawn) [Compound 54],–,–,2 µg/mL,2 µg/mL,2 µg/mL,2 µg/mL
CC1O[C@@H](O[C@H]2/C=C/C=C/C=C/C=C/C=C/C=C/C=C/[C@H](C)[C@@H](O)[C@@H](C)[C@H](C)OC(=O)C[C@H](O)C[C@H](O)C[C@H](O)CC[C@@H](O)[C@H](O)C[C@]3(O)C[C@H](O)[C@@H](C(=O)NCCN(C)C)[C@H](C2)O3)[C@H](O)C(NC(=O)CN(C)C)[C@@H]1O (stereo partly drawn) [Compound 45],–,–,1 µg/mL,2 µg/mL,1 µg/mL,4 µg/mL
"CC1O[C@@H](O[C@H]2/C=C/C=C/C=C/C=C/C=C/C=C/C=C/[C@H](C)[C@@H](O)[C@@H](C)[C@H](C)OC(=O)C[C@H](O)C[C@H](O)C[C@H](O)CC[C@@H](O)[C@H](O)C[C@]3(O)C[C@H](O)[C@@H](C)[C@H](C2)O3)[C@H](O)C(NCc2ccc(N(C)C)cc2)[C@@H]1O (stereo partly drawn) [Compound 50, N-(4-N,N-Di-methylaminobenzyl) Compound 1]",–,–,2 µg/mL,2 µg/mL,2 µg/mL,8 µg/mL
"CC1O[C@@H](O[C@H]2/C=C/C=C/C=C/C=C/C=C/C=C/C=C/[C@H](C)[C@@H](O)[C@@H](C)[C@H](C)OC(=O)C[C@H](O)C[C@H](O)C[C@H](O)CC[C@@H](O)[C@H](O)C[C@]3(O)C[C@H](O)[C@@H](C)[C@H](C2)O3)[C@H](O)C(N)[C@@H]1O.Cl (stereo partly drawn) [Compound 53, Compound 1 Hydrochloride]",–,–,2 µg/mL,2 µg/mL,4 µg/mL,4 µg/mL
CC1C=CC=CC=CC=CC=CC=CC=CC(OC2OC(C)C(O)C(NC(=O)C(N)CCCCN)C2O)CC2OC(O)(CC(O)C(O)CCC(O)CC(O)CC(O)CC(=O)OC(C)C(C)C1O)CC(O)C2C(=O)O (stereo not drawn) [Compound 23],–,–,4 µg/mL,4 µg/mL,8 µg/mL,8 µg/mL
CC1C=CC=CC=CC=CC=CC=CC=CC(OC2OC(C)C(O)C(N)C2O)CC2OC(O)(CC(O)CCCC(O)CC(O)CC(O)CC(=O)OC(C)C(C)C1O)CC(O)C2C(=O)NCCN(C)C.NC(CCC(=O)O)C(=O)O (stereo not drawn) [Compound 27],20.6 mg/kg,10.8 mg/kg,–,–,–,–
CC1C=CC=CC=CC=CC=CC=CC=CC(OC2OC(C)C(O)C(NC(=O)CN(C)C)C2O)CC2OC(O)(CC(O)C(O)CCC(O)CC(O)CC(O)CC(=O)OC(C)C(C)C1O)CC(O)C2C(=O)NCCCN(C)C (stereo not drawn) [Compound 34],–,–,1 µg/mL,2 µg/mL,1 µg/mL,4 µg/mL
CC1C=CC=CC=CC=CC=CC=CC=CC(OC2OC(C)C(O)C(NC(=O)c3ccc(CN)cc3)C2O)CC2OC(O)(CC(O)C(O)CCC(O)CC(O)CC(O)CC(=O)OC(C)C(C)C1O)CC(O)C2C(=O)NCCCN(C)C (stereo not drawn) [Compound 35],–,–,2 µg/mL,2 µg/mL,4 µg/mL,4 µg/mL
CC1O[C@@H](O[C@H]2/C=C/C=C/C=C/C=C/C=C/C=C/C=C/[C@H](C)[C@@H](O)[C@@H](C)[C@H](C)OC(=O)C[C@H](O)C[C@H](O)C[C@H](O)CC[C@@H](O)[C@H](O)C[C@]3(O)C[C@H](O)[C@@H](C)[C@H](C2)O3)[C@H](O)C(N)[C@@H]1O.O=C(O)C(Cl)Cl (stereo partly drawn) [Compound 57],–,–,2 µg/mL,2 µg/mL,2 µg/mL,2 µg/mL
CC1C=CC=CC=CC=CC=CC=CC=CC(OC2OC(C)C(O)C(NCC3(O)OCC(O)C(OC4OC(CO)C(O)C(O)C4O)C3O)C2O)CC2OC(O)(CC(O)C(O)CCC(O)CC(O)CC(O)CC(=O)OC(C)C(C)C1O)CC(O)C2C(=O)O (stereo not drawn) [Compound 19],–,–,2 µg/mL,2 µg/mL,2 µg/mL,8 µg/mL
CC1C=CC=CC=CC=CC=CC=CC=CC(OC2OC(C)C(O)C(NC(=O)CN(C)C)C2O)CC2OC(O)(CC(O)C(O)CCC(O)CC(O)CC(O)CC(=O)OC(C)C(C)C1O)CC(O)C2C(=O)NCCCO (stereo not drawn) [Compound 39],–,–,1 µg/mL,1 µg/mL,2 µg/mL,16 µg/mL
CC1C=CC=CC=CC=CC=CC=CC=CC(OC2OC(C)C(O)C(N(Cc3ccc(N(C)C)cc3)Cc3ccc(N(C)C)cc3)C2O)CC2OC(O)(CC(O)C(O)CCC(O)CC(O)CC(O)CC(=O)OC(C)C(C)C1O)CC(O)C2C(=O)O (stereo not drawn) [Compound 20],–,–,2 µg/mL,2 µg/mL,4 µg/mL,>16 µg/mL
